Assay results reported in patent US6740523B2 (priority 1997, dated 2004).

What was measured:
[1] = system: σ expression in HCT116 and other CRC cell lines; assay: Northern blot of σ expression following adriamycin treatment; assay type: cell-based, human; settings: 0.2 ug/ml adriamycin
Procedure: (FIG. 1B) σ Expression following adriamycin treatment. Seven different CRC cell lines were treated with 0.2 ug/ml adriamycin (+) or vehicle (−) as indicated. RNA was prepared 24 hours following adriamycin treatment. Autoradiographs of Northern blots performed with σ, p21 and EF1 probes are shown. The p53 status of the respective cell lines is indicated on the top.
Northern blotting with a radiolabeled probe generated from σ cDNA was performed to confirm the SAGE results. […] Previous reports have shown that σ expression is limited to epithelial cells.
Total RNA was prepared by CsCl gradient ultracentrifugation of guanidine isothiocyanate-lysed cells as described. […].

[2] = system: HCT116 cells; assay type: cell-based, human

SMILES | induction of σ expression ([1]; HCT116 cells, RNA 24 hours after treatment) | σ expression in other colorectal cancer cell lines ([1]; several other CRC cell lines, 24 hours) | effect on polyploidization of Ad-σ infected cells [2]
COc1cccc2c1C(=O)c1c(O)c3c(c(O)c1C2=O)C[C@@](O)(C(=O)CO)C[C@@H]3O[C@H]1C[C@H](N)[C@H](O)[C@H](C)O1 [adriamycin] | similarly induce σ expression | express σ at relatively high levels | –
CN[C@H]1CCc2cc(OC)c(OC)c(OC)c2-c2ccc(OC)c(=O)cc21 [colcemid] | – | – | did not prevent this polyploidization
